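Compound exposure: 48 hours, 5 concentrations, 96-well plates. At the GI50, growth is halved.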 Calls of active or inactive are those of the source. Cut-off read from the data, not from the text of the source: active = GI50 up to about 1.1 µM and inactive = higher.
Key:
Test in all cases: inhibition of tumour cell growth, NCI panel, 48 h
SNB-75 = tested on: SNB-75
SK-OV-3 = tested on: SK-OV-3
Malme-3M = tested on: Malme-3M
OVCAR-3 = tested on: OVCAR-3
CCRF-CEM = tested on: CCRF-CEM
LOX IMVI = tested on: LOX IMVI
HL-60 = tested on: HL-60
IGROV-1 = tested on: IGROV-1
TK-10 = tested on: TK-10
RXF 393 = tested on: RXF 393
OVCAR-8 = tested on: OVCAR-8
OVCAR-5 = tested on: OVCAR-5
KM12 = tested on: KM12
COLO 205 = tested on: COLO 205
NCI-H226 = tested on: NCI-H226

| Compound | GI50 (SNB-75) | GI50 (SK-OV-3) | GI50 (Malme-3M) | GI50 (OVCAR-3) | GI50 (CCRF-CEM) | GI50 (LOX IMVI) | GI50 (HL-60) | GI50 (IGROV-1) | GI50 (TK-10) | GI50 (RXF 393) | GI50 (OVCAR-8) | GI50 (OVCAR-5) | GI50 (KM12) | GI50 (COLO 205) | GI50 (NCI-H226) |
| --- | --- | --- | --- | --- | --- | --- | --- | --- | --- | --- | --- | --- | --- | --- | --- |
| Cc1nc(-n2nc(-c3ccccc3)cc2-c2ccccc2)sc1C(=O)/C=C/c1cccc([N+](=O)[O-])c1 | 5.73 µM (inactive) | 46.3 µM (inactive) | 19.2 µM (inactive) | 3.03 µM (inactive) | 8.32 µM (inactive) | 11.2 µM (inactive) | 12.2 µM (inactive) | 24.1 µM (inactive) | 36 µM (inactive) | 14.1 µM (inactive) | 28.4 µM (inactive) | 23.7 µM (inactive) | 2.62 µM (inactive) | 17 µM (inactive) |  |
| Cc1cc(N(CCC#N)CCC#N)ccc1CC1N=C(c2ccccc2)OC1=O (centres undefined) | > 100 µM (inactive) | > 100 µM (inactive) | > 100 µM (inactive) | > 100 µM (inactive) | > 100 µM (inactive) | > 100 µM (inactive) | > 100 µM (inactive) | > 100 µM (inactive) | > 100 µM (inactive) |  | > 100 µM (inactive) | > 100 µM (inactive) | > 100 µM (inactive) | > 100 µM (inactive) | 64.1 µM (inactive) |
| Cc1ccc(C)c2c1C1CCCCC3(OCCCO3)C21O (centres undefined) | 31.7 µM (inactive) | > 100 µM (inactive) | > 100 µM (inactive) | 51.4 µM (inactive) | > 100 µM (inactive) | > 100 µM (inactive) | > 100 µM (inactive) | > 100 µM (inactive) | > 100 µM (inactive) | > 100 µM (inactive) | > 100 µM (inactive) | > 100 µM (inactive) | > 100 µM (inactive) | > 100 µM (inactive) | > 100 µM (inactive) |
| CCCCCC(=O)OC[n+]1ccc2c(C)c3[nH]c4ccccc4c3c(C)c2c1 | 1.49 µM (inactive) | 1.92 µM (inactive) | 1.54 µM (inactive) | 1.19 µM (inactive) |  | 0.514 µM (active) | 2.99 µM (inactive) | 1.75 µM (inactive) | 3.08 µM (inactive) | 1.23 µM (inactive) | 0.474 µM (active) | 1.28 µM (inactive) |  |  | 1.32 µM (inactive) |
| CN(C)C(=O)Oc1c(-c2ccccc2)c(=O)n2c3ccccc3n3c(=O)n(C)c(=O)c1c23 | 72.3 µM (inactive) | > 100 µM (inactive) | > 100 µM (inactive) | > 100 µM (inactive) |  | > 100 µM (inactive) |  | > 100 µM (inactive) | > 100 µM (inactive) | > 100 µM (inactive) | > 100 µM (inactive) | > 100 µM (inactive) | > 10 µM (inactive) | > 100 µM (inactive) |  |
| CN(CCS(=O)(=O)N1C(=O)C2CCCN2C(=O)[C@@H]1Cc1ccccc1)C(=O)OCc1ccccc1 (some centres undefined) | 33.4 µM (inactive) | > 100 µM (inactive) | 65 µM (inactive) | 32.6 µM (inactive) | 33 µM (inactive) | 58.3 µM (inactive) | 10.7 µM (inactive) | > 100 µM (inactive) | 73.3 µM (inactive) | 28.6 µM (inactive) | 70.3 µM (inactive) | > 100 µM (inactive) | 48.2 µM (inactive) | 58.5 µM (inactive) | 37.8 µM (inactive) |
| CCOC(=O)C1COc2cc(-c3cc(=O)c4ccccc4o3)ccc2O1 (centres undefined) | 47.9 µM (inactive) | > 100 µM (inactive) | > 100 µM (inactive) | > 100 µM (inactive) | > 100 µM (inactive) | 52.7 µM (inactive) |  | 66.8 µM (inactive) | > 100 µM (inactive) | 47.8 µM (inactive) | 24.7 µM (inactive) | 78.9 µM (inactive) | > 100 µM (inactive) | > 100 µM (inactive) |  |
| CC(C)(Oc1ccc(C(=O)c2ccc(Cl)cc2)cc1Cl)C(=O)Nc1c(Cl)cccc1Cl |  | > 100 µM (inactive) | > 100 µM (inactive) | > 100 µM (inactive) | > 100 µM (inactive) | > 100 µM (inactive) | 10.7 µM (inactive) | > 100 µM (inactive) | > 100 µM (inactive) | < 0.01 µM (active) | > 100 µM (inactive) | > 100 µM (inactive) | > 100 µM (inactive) |  |  |
| O=c1sc(-c2nc3ccccc3[nH]2)c(/N=C/c2ccccc2)n1-c1ccccc1 | 21.6 µM (inactive) | 42.6 µM (inactive) | 92.7 µM (inactive) | 25.6 µM (inactive) | > 100 µM (inactive) | 40.3 µM (inactive) | > 100 µM (inactive) | 97.7 µM (inactive) | 62.8 µM (inactive) | 62.4 µM (inactive) | 35.6 µM (inactive) | > 100 µM (inactive) | 73.3 µM (inactive) | 56.4 µM (inactive) | 15.4 µM (inactive) |
| N#CCCN(C1=NN(C(=O)CC(=O)Nc2ccc(Cl)cc2)C(c2ccccc2)C1)c1ccc(Cl)cc1 (centres undefined) | > 100 µM (inactive) |  | > 100 µM (inactive) | > 100 µM (inactive) | > 100 µM (inactive) | > 100 µM (inactive) | > 100 µM (inactive) | > 100 µM (inactive) | > 100 µM (inactive) | > 100 µM (inactive) | > 100 µM (inactive) | > 100 µM (inactive) | > 100 µM (inactive) | > 100 µM (inactive) | > 100 µM (inactive) |
| O=C1Cc2nc(CO)c(CO)c(CO)c2CO1 | > 100 µM (inactive) | > 100 µM (inactive) | > 100 µM (inactive) | > 100 µM (inactive) | > 100 µM (inactive) | > 100 µM (inactive) | > 100 µM (inactive) | > 100 µM (inactive) | > 100 µM (inactive) |  | > 100 µM (inactive) | > 100 µM (inactive) | > 100 µM (inactive) | > 100 µM (inactive) |  |
| CC(=O)c1ccc(N2C(=O)C3c4[nH]c5ccccc5c4C4CCC(C(C)(C)C)CC4C3C2=O)cc1 (centres undefined) | 22.6 µM (inactive) | 48.6 µM (inactive) | 16.7 µM (inactive) |  | 36.3 µM (inactive) |  | 27.1 µM (inactive) | 40.6 µM (inactive) |  | 17.9 µM (inactive) | 22.4 µM (inactive) |  |  | 15.2 µM (inactive) | 18.7 µM (inactive) |
| C=CCC(N(C)C(=O)[C@H](Cc1ccccc1)NC(=O)OCc1ccccc1)P(=O)(Oc1ccccc1)Oc1ccccc1 (some centres undefined) | 80.5 µM (inactive) | > 100 µM (inactive) | > 100 µM (inactive) | > 100 µM (inactive) | 8.51 µM (inactive) | > 100 µM (inactive) | 12.8 µM (inactive) | > 100 µM (inactive) | > 100 µM (inactive) | > 100 µM (inactive) | > 100 µM (inactive) |  | > 100 µM (inactive) | 8.43 µM (inactive) | > 100 µM (inactive) |
| O=C1CCCCCCCCCCC(=O)N2CCOCCOCCN1Cc1cccc(n1)C2 | 56 µM (inactive) | > 100 µM (inactive) | > 100 µM (inactive) | 44.5 µM (inactive) | > 100 µM (inactive) | > 100 µM (inactive) |  | > 100 µM (inactive) | > 100 µM (inactive) | 28.4 µM (inactive) | > 100 µM (inactive) | > 100 µM (inactive) | > 100 µM (inactive) | > 100 µM (inactive) | > 100 µM (inactive) |
| Cc1c(C(=O)CC(=O)C(=O)Nc2cccc(C(F)(F)F)c2)[n+]([O-])c2ccccc2[n+]1[O-] | 3.04 µM (inactive) | 18.2 µM (inactive) | 4.22 µM (inactive) | 1.66 µM (inactive) | 2.51 µM (inactive) | 2.86 µM (inactive) | 3.08 µM (inactive) | 2.74 µM (inactive) | 28.2 µM (inactive) | 11.5 µM (inactive) | 2.45 µM (inactive) | 7.28 µM (inactive) | 4.1 µM (inactive) | 3.33 µM (inactive) | 30.8 µM (inactive) |
| COc1ccc(CNc2cnc3ccc(N)cc3n2)cc1OC | 66.7 µM (inactive) |  | > 100 µM (inactive) | > 100 µM (inactive) | > 100 µM (inactive) | > 100 µM (inactive) | > 100 µM (inactive) |  | 64.6 µM (inactive) |  | > 100 µM (inactive) | > 100 µM (inactive) | > 100 µM (inactive) | 60 µM (inactive) | > 100 µM (inactive) |
| O=C(/C=C/c1ccco1)N1CCN(Cc2ccccc2)CC1 | > 100 µM (inactive) | > 100 µM (inactive) |  | > 100 µM (inactive) | > 100 µM (inactive) | > 100 µM (inactive) | > 100 µM (inactive) | > 100 µM (inactive) | > 100 µM (inactive) |  | > 100 µM (inactive) | > 100 µM (inactive) | > 100 µM (inactive) |  |  |
| O=C(COc1ccc(Br)cc1Br)N1N=C(c2ccc([N+](=O)[O-])o2)CC1(O)c1ccccc1 (centres undefined) | 14.1 µM (inactive) | 24.1 µM (inactive) | 10.7 µM (inactive) | 3.93 µM (inactive) | 3.13 µM (inactive) | 5.47 µM (inactive) | 3.12 µM (inactive) | 19.5 µM (inactive) |  | 2.53 µM (inactive) | 9.89 µM (inactive) | 29.3 µM (inactive) | 17.4 µM (inactive) | 2.7 µM (inactive) | 18.2 µM (inactive) |
| CC1C(=O)O[C@H]2C1CC[C@@]1(C)[C@H](O)CC[C@@]13C[C@]2(O)OO3 (some centres undefined) |  | > 100 µM (inactive) | > 100 µM (inactive) | > 100 µM (inactive) | > 100 µM (inactive) | > 100 µM (inactive) | > 100 µM (inactive) | > 100 µM (inactive) | > 100 µM (inactive) |  | > 100 µM (inactive) | > 100 µM (inactive) |  | > 100 µM (inactive) | > 100 µM (inactive) |
| CC1C[C@@]2(c3ccccc3)C(=O)CCC[C@H]2N1 (some centres undefined) | > 100 µM (inactive) | > 100 µM (inactive) | 16.9 µM (inactive) | > 100 µM (inactive) | > 100 µM (inactive) |  | > 100 µM (inactive) | > 100 µM (inactive) | > 100 µM (inactive) | > 100 µM (inactive) | > 100 µM (inactive) | > 100 µM (inactive) | > 100 µM (inactive) |  | > 100 µM (inactive) |
